Earlier results on one substance are cited in US20180148480A1, “[…] ENHANCEMENT OF THE T-CELL ARM[…] AN ANTI-CANCER THERAPY” (THE JOHNS HOPKINS UNIVERSITY, priority 2015, published 2018).

Bounds are passed on as bounds.

In one series the test system is animals. The note with it: single intravenous dose; kills 100% of animals within 24 hrs.

Turning to wild-type PA, the LD50 concentration in the series with SN12C (renal), in the series on DU145, in the series with TT (thyroid), in the series with LNCaP, in the series with TSU (bladder) and with PC3 was ≤ 50 pM in each case. Also, the LD50 concentration in the series with LAPC-4 and in the series with CWR22Rv1 was ≤ 50 pM in each case. Moreover, in the series on animals, the LD100 is 0.1 µg.
